# According to PubChem BioAssay (NCI):
#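 Tested at 5 concentrations; 48 h exposure; 96-well plates; endpoints linearly interpolated, else capped at highest concentration. At the TGI there is no net growth.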
# Key:
# Assay in all cases: growth of human tumour cells (NCI), 48 h
# 786-0 renal = system: 786-0 renal
# A498 renal = system: A498 renal
# A549 NSCLC = system: A549 NSCLC
# ACHN renal = system: ACHN renal
# BT-549 breast = system: BT-549 breast
# CAKI-1 renal = system: CAKI-1 renal
# CCRF-CEM leukemia = system: CCRF-CEM leukemia
# COLO 205 colon = system: COLO 205 colon
# DU-145 prostate = system: DU-145 prostate
# HCC-2998 colon = system: HCC-2998 colon
# HCT-116 colon = system: HCT-116 colon
# HCT-15 colon = system: HCT-15 colon
# HOP-92 NSCLC = system: HOP-92 NSCLC
# HT29 colon = system: HT29 colon
# IGROV1 ovarian = system: IGROV1 ovarian
# K-562 leukemia = system: K-562 leukemia
# KM12 colon = system: KM12 colon
# M14 melanoma = system: M14 melanoma
# MALME-3M melanoma = system: MALME-3M melanoma
# MCF7 breast = system: MCF7 breast
# MDA-MB-231 breast = system: MDA-MB-231 breast
# MDA-MB-435 = system: MDA-MB-435
# MDA-N = system: MDA-N
# NCI-H226 lung = system: NCI-H226 lung
# NCI-H23 lung = system: NCI-H23 lung
# NCI-H460 lung = system: NCI-H460 lung
# NCI-H522 lung = system: NCI-H522 lung
# NCI/ADR-RES ovarian = system: NCI/ADR-RES ovarian
# OVCAR-3 ovarian = system: OVCAR-3 ovarian
# OVCAR-4 ovarian = system: OVCAR-4 ovarian
# OVCAR-5 ovarian = system: OVCAR-5 ovarian
# OVCAR-8 ovarian = system: OVCAR-8 ovarian
# PC-3 prostate = system: PC-3 prostate
# RPMI-8226 leukemia = system: RPMI-8226 leukemia
# RXF 393 renal = system: RXF 393 renal
# SF-268 CNS = system: SF-268 CNS
# SF-539 CNS = system: SF-539 CNS
# SK-MEL-2 melanoma = system: SK-MEL-2 melanoma
# SK-MEL-28 melanoma = system: SK-MEL-28 melanoma
# SK-MEL-5 melanoma = system: SK-MEL-5 melanoma
# SN12C renal = system: SN12C renal
# SNB-19 CNS = system: SNB-19 CNS
# SNB-75 CNS = system: SNB-75 CNS
# SR leukemia = system: SR leukemia
# SW-620 colon = system: SW-620 colon
# T-47D breast = system: T-47D breast
# TK-10 renal = system: TK-10 renal
# U251 CNS = system: U251 CNS
# UACC-257 melanoma = system: UACC-257 melanoma
# UACC-62 melanoma = system: UACC-62 melanoma
# UO-31 renal = system: UO-31 renal
# EKVX NSCLC = system: EKVX NSCLC
# HL-60(TB) leukemia = system: HL-60(TB) leukemia
# HOP-62 NSCLC = system: HOP-62 NSCLC
# LOX IMVI melanoma = system: LOX IMVI melanoma
# MOLT-4 leukemia = system: MOLT-4 leukemia
# SF-295 CNS = system: SF-295 CNS
# SK-OV-3 ovarian = system: SK-OV-3 ovarian
compound,measurement,setting,value
CC1C(=O)N=C2C(=CN(Cc3ccccc3)c3ccccc32)C(=O)N1C (stereo unspecified),TGI,786-0 renal,> 100 µM
same,TGI,A498 renal,> 100 µM
same,TGI,A549 NSCLC,> 100 µM
same,TGI,ACHN renal,> 100 µM
same,TGI,BT-549 breast,> 100 µM
same,TGI,CAKI-1 renal,> 100 µM
same,TGI,CCRF-CEM leukemia,> 100 µM
same,TGI,COLO 205 colon,> 100 µM
same,TGI,DU-145 prostate,> 100 µM
same,TGI,HCC-2998 colon,> 100 µM
same,TGI,HCT-116 colon,> 100 µM
same,TGI,HCT-15 colon,> 100 µM
same,TGI,HOP-92 NSCLC,> 100 µM
same,TGI,HT29 colon,> 100 µM
same,TGI,IGROV1 ovarian,> 100 µM
same,TGI,K-562 leukemia,> 100 µM
same,TGI,KM12 colon,> 100 µM
same,TGI,M14 melanoma,> 100 µM
same,TGI,MALME-3M melanoma,> 100 µM
same,TGI,MCF7 breast,> 100 µM
same,TGI,MDA-MB-231 breast,> 100 µM
same,TGI,MDA-MB-435,> 100 µM
same,TGI,MDA-N,> 100 µM
same,TGI,NCI-H226 lung,> 100 µM
same,TGI,NCI-H23 lung,> 100 µM
same,TGI,NCI-H460 lung,> 100 µM
same,TGI,NCI-H522 lung,> 100 µM
same,TGI,NCI/ADR-RES ovarian,> 100 µM
same,TGI,OVCAR-3 ovarian,> 100 µM
same,TGI,OVCAR-4 ovarian,> 100 µM
same,TGI,OVCAR-5 ovarian,> 100 µM
same,TGI,OVCAR-8 ovarian,> 100 µM
same,TGI,PC-3 prostate,> 100 µM
same,TGI,RPMI-8226 leukemia,> 100 µM
same,TGI,RXF 393 renal,> 100 µM
same,TGI,SF-268 CNS,> 100 µM
same,TGI,SF-539 CNS,> 100 µM
same,TGI,SK-MEL-2 melanoma,> 100 µM
same,TGI,SK-MEL-28 melanoma,> 100 µM
same,TGI,SK-MEL-5 melanoma,> 100 µM
same,TGI,SN12C renal,> 100 µM
same,TGI,SNB-19 CNS,> 100 µM
same,TGI,SNB-75 CNS,> 100 µM
same,TGI,SR leukemia,> 100 µM
same,TGI,SW-620 colon,> 100 µM
same,TGI,T-47D breast,> 100 µM
same,TGI,TK-10 renal,> 100 µM
same,TGI,U251 CNS,> 100 µM
same,TGI,UACC-257 melanoma,> 100 µM
same,TGI,UACC-62 melanoma,> 100 µM
same,TGI,UO-31 renal,> 100 µM
Cc1c(CCN=P(c2ccccc2)(c2ccccc2)c2ccccc2)c(=O)n2c([nH]c3ccccc32)c1C#N,TGI,786-0 renal,> 10 µM
same,TGI,A549 NSCLC,> 10 µM
same,TGI,CAKI-1 renal,> 10 µM
same,TGI,CCRF-CEM leukemia,> 10 µM
same,TGI,COLO 205 colon,> 10 µM
same,TGI,DU-145 prostate,> 10 µM
same,TGI,EKVX NSCLC,> 10 µM
same,TGI,HCC-2998 colon,> 10 µM
same,TGI,HCT-15 colon,> 10 µM
same,TGI,HL-60(TB) leukemia,> 10 µM
same,TGI,HOP-62 NSCLC,> 10 µM
same,TGI,HT29 colon,> 10 µM
same,TGI,IGROV1 ovarian,> 10 µM
same,TGI,K-562 leukemia,> 10 µM
same,TGI,KM12 colon,> 10 µM
same,TGI,LOX IMVI melanoma,> 10 µM
same,TGI,M14 melanoma,> 10 µM
same,TGI,MALME-3M melanoma,> 10 µM
same,TGI,MCF7 breast,> 10 µM
same,TGI,MDA-MB-231 breast,> 10 µM
same,TGI,MDA-N,> 10 µM
same,TGI,MOLT-4 leukemia,> 10 µM
same,TGI,NCI-H23 lung,> 10 µM
same,TGI,OVCAR-8 ovarian,> 10 µM
same,TGI,PC-3 prostate,> 10 µM
same,TGI,RPMI-8226 leukemia,> 10 µM
same,TGI,RXF 393 renal,> 10 µM
same,TGI,SF-268 CNS,> 10 µM
same,TGI,SF-295 CNS,> 10 µM
same,TGI,SK-MEL-28 melanoma,> 10 µM
same,TGI,SK-MEL-5 melanoma,> 10 µM
same,TGI,SK-OV-3 ovarian,> 10 µM
same,TGI,SN12C renal,> 10 µM
same,TGI,SNB-75 CNS,> 10 µM
same,TGI,SR leukemia,> 10 µM
same,TGI,SW-620 colon,> 10 µM
same,TGI,T-47D breast,> 10 µM
same,TGI,TK-10 renal,> 10 µM
same,TGI,UACC-257 melanoma,> 10 µM
same,TGI,UACC-62 melanoma,> 10 µM
